In patent US20080261994A1, “CYCLOPROPANE COMPOUNDS AND PHARMACEUTICAL USE THEREOF” (Japan Tobacco Inc., priority 2003, published 2008):
Like-named read-outs stand apart in the source and are kept apart here.

What was measured:
Format in all cases: biochemical
Recombinant Human MMP-13 = target: T1, Recombinant Human MMP-13 (Homo sapiens, UniProt P45452); test: MMP-13 inhibitory activity (MMP-13 specific fluorescent substrate with quencher)
T1 construct: purchased R&D systems 511-MM
Summary of the method: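 IC50 (μM) derived from % inhibition, normalised to wells without enzyme and without inhibitor, fluorescence read at 325/405 nm. Enzyme and compound preceded addition of the quenched 7-MCA…DPA substrate; Tris-HCl buffer, 25 °C for 1 h, acetic-acid stop.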

aggrecanase-1 = target: T2, aggrecanase-1 (Homo sapiens, UniProt O75173); test: Aggrecanase-1 inhibitory action (Particle Assay, GAG release from aggrecan-containing polyacrylamide particles)
T2 sequence (O75173 213-837): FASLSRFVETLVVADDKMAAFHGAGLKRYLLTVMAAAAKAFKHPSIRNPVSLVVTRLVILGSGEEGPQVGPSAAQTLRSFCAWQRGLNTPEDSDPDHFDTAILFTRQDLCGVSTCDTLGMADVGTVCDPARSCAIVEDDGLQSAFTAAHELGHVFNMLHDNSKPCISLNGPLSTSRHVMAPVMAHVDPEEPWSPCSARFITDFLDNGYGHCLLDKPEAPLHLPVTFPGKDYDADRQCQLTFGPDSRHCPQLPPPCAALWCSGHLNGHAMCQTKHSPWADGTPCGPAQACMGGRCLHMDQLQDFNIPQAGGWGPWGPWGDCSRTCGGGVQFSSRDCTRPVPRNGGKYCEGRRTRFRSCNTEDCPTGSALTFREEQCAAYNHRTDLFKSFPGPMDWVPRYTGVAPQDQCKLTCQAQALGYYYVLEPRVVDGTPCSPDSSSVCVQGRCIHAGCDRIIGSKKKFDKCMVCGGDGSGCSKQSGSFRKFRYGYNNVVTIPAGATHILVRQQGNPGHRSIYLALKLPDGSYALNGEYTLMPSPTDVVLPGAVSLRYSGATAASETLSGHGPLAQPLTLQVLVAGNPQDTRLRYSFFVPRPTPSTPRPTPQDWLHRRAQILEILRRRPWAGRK
Summary of the method: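 Readout was dimethylmethylene blue absorbance (595 nm) of glycosaminoglycan liberated into supernatant, calibrated with whale chondroitin sulfate. Substrate was aggrecan in polyacrylamide particles, digested 15 h at 37° C in Tris-HCl; TC50 (μM) derived from inhibition relative to no-enzyme and no-inhibitor controls.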

MMP-1 = target: T3, MMP-1 (Homo sapiens, UniProt P03956); test: MMP-1 inhibitory action (Type I collagen Activity Measurement kit, FITC-labeled collagen type I)
T3 sequence (P03956 100-469): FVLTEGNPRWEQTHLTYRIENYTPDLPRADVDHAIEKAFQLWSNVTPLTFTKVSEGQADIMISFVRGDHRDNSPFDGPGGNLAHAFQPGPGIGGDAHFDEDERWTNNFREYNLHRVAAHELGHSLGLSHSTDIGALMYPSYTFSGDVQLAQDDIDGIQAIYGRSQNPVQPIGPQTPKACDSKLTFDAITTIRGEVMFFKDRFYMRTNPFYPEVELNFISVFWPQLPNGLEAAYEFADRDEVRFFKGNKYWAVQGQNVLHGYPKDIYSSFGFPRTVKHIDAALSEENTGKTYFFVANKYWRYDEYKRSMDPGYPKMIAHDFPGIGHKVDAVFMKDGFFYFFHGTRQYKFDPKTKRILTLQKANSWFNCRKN

[1] = Experimental Example 3, read-out: IC50 MMP13
[2] = Experimental Example 1, read-out: IC50 AG1
[3] = Experimental Example 2, read-out: IC50 MMP1
[4] = Recombinant Human MMP-13, fluorescent substrate, 25° C. for 1 h, read-out: IC50 MMP13 (Experimental Example 3)
[5] = aggrecanase-1 inhibitory action, read-out: IC50 AG1 (Experimental Example 1)
[6] = MMP-1 inhibitory action, FITC-labeled collagen type I, 37° C. for 3 hr, read-out: IC50 MMP1 (Experimental Example 2)

SMILES	IC50 (Recombinant Human MMP-13; [1]) [nM]	IC50 (aggrecanase-1; [2]) [nM]	IC50 (MMP-1; [3]) [µM]	IC50 (Recombinant Human MMP-13; [4]) [nM]	IC50 (aggrecanase-1; [5]) [nM]	IC50 (MMP-1; [6]) [µM]
C[C@]1(c2ccccc2)C[C@@]1(NS(=O)(=O)c1ccc(-c2ccc3c(c2)OCCO3)s1)C(=O)O [Example 2-485]	≥ 1000	< 1000	≥ 10			
CC1[C@H](c2ccccc2)[C@]1(NS(=O)(=O)N1CCN(CCc2ccccc2)CC1)C(=O)O (stereo partly drawn) [Example 2-531]	≥ 1000	≥ 1000	≥ 1			
Cc1cc(N2CCN(S(=O)(=O)N[C@@]3(C(=O)O)C(C)[C@@H]3c3ccccc3)CC2)no1 (stereo partly drawn) [Example 2-475]	≥ 1000	≥ 1000	≥ 10			
COCCN(C)Cc1ccccc1C1CC1(NS(=O)(=O)c1ccc(-c2ccc(Cl)cc2)s1)C(=O)O (stereo not drawn) [Example 2-89]				≥ 1000	≥ 1000	≥ 10
O=C(O)C1(NS(=O)(=O)c2ccc(-c3ccc(Cl)cc3)s2)CC1c1ccc(Br)cc1 (stereo not drawn) [Example 2-202]				< 1000	< 1000	≥ 10
O=C(O)C1(NS(=O)(=O)N2CCC(Oc3ccc(C(F)(F)F)cc3)CC2)CC1c1ccccc1 (stereo not drawn) [Example 2-144]				≥ 1000	≥ 10000	≥ 10
O=C(O)[C@]1(NS(=O)(=O)c2ccc(-c3ccc(Cl)cc3)s2)C[C@@H]1c1cccc(CO)c1 [Example 2-182]				< 100	< 100	≥ 10
CN(Cc1cccnc1)c1cccc(C2CC2(NS(=O)(=O)c2ccc(-c3ccc(Cl)cc3)s2)C(=O)O)c1 (stereo not drawn) [Example 2-37]				< 100	< 100	≥ 10
CC1(c2cccc(S(C)(=O)=O)c2)CC1(NS(=O)(=O)c1ccc(-c2cc(C(F)(F)F)on2)s1)C(=O)O (stereo not drawn) [Example 2-614]	≥ 1000	< 100	< 1			
O=C(O)C1(NS(=O)(=O)c2ccc(-c3ccc(O)cc3)s2)CC1c1ccccc1 (stereo not drawn) [Example 2-65]				< 1000	< 1000	≥ 10
O=C(O)C1(NS(=O)(=O)c2ccc(-c3ccc(Cl)c(Cl)c3)s2)CC1c1ccccc1 (stereo not drawn) [Example 2-18]				< 1000	< 1000	≥ 1
C[C@]1(c2ccc(Cl)cc2)C[C@@]1(NS(=O)(=O)c1ccc(-c2cc(C(F)(F)F)on2)s1)C(=O)O [Example 2-620]	< 100	< 100	< 1			
O=C(O)C1(NS(=O)(=O)c2ccc(-c3ccc(Cl)cc3)s2)CC1C1CCCCC1 (stereo not drawn) [Example 2-41]				< 1000	< 1000	≥ 10
O=C(CCc1ccc([C@H]2C[C@@]2(NS(=O)(=O)c2ccc(-c3cc(C(F)(F)F)on3)s2)C(=O)O)cc1)N1CCOCC1 [Example 2-279]	< 100	< 100	< 1			
O=C(O)C1(NS(=O)(=O)c2ccc(-c3cc(C(F)(F)F)on3)s2)CC1c1ccccc1 (stereo not drawn) [Example 1-121]				< 100	< 100	≥ 1
O=C(Nc1cccc(C2CC2(NS(=O)(=O)c2ccc(-c3ccc(Cl)cc3)cc2)C(=O)O)c1)c1ccccn1 (stereo not drawn) [Example 1-62]				< 100	< 1000	≥ 1
Cc1cnn(-c2ccc(S(=O)(=O)N[C@@]3(C(=O)O)C(C)[C@@H]3c3ccccc3)s2)c1 (stereo partly drawn) [Example 2-287]	< 100	< 100	< 1			
CC1[C@H](c2ccccc2)[C@]1(NS(=O)(=O)c1ccc(OCc2ccc(Cl)cc2Cl)cc1)C(=O)NO (stereo partly drawn) [Example 2-325]	≥ 1000	≥ 1000	≥ 10			
CC1(C)CC1(NS(=O)(=O)c1ccc(-c2ccc(Cl)cc2)s1)C(=O)O (stereo not drawn) [Example 2-147]				≥ 1000	≥ 1000	≥ 10
O=C(O)C1(NS(=O)(=O)N2CCn3c(nnc3-c3ccccc3)C2)CC1c1ccccc1 (stereo not drawn) [Example 2-126]				≥ 10000	≥ 10000	≥ 10
